Results as given in ChEMBL document CHEMBL1201862, “PubChem BioAssay data set” (2004).
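Briefly, cells in 96-well plates were exposed to five compound concentrations for 48 h, and endpoints were estimated by linear interpolation. The concentration for 50% growth inhibition is given as GI50.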 Activity calls are given as the source filed them. Cut-off read from the data, not from the text of the source: active = GI50 up to about 1.1 µM and inactive = higher.

Experiments:
Test in all cases: growth of human tumour cells (NCI), 48 h
SNB-75 = test system: SNB-75
SF-295 = test system: SF-295
HCT-15 = test system: HCT-15
SK-MEL-28 = test system: SK-MEL-28
HOP-62 = test system: HOP-62
HCT-116 = test system: HCT-116
OVCAR-8 = test system: OVCAR-8
SK-MEL-5 = test system: SK-MEL-5
KM12 = test system: KM12
HOP-92 = test system: HOP-92
T47D = test system: T47D
SK-OV-3 = test system: SK-OV-3
COLO 205 = test system: COLO 205
HCC 2998 = test system: HCC 2998
IGROV-1 = test system: IGROV-1
NCI/ADR-RES = test system: NCI/ADR-RES
EKVX = test system: EKVX
NCI-H23 = test system: NCI-H23
BT-549 = test system: BT-549
786-0 = test system: 786-0

SMILES | GI50 (SNB-75) | GI50 (SF-295) | GI50 (HCT-15) | GI50 (SK-MEL-28) | GI50 (HOP-62) | GI50 (HCT-116) | GI50 (OVCAR-8) | GI50 (SK-MEL-5) | GI50 (KM12) | GI50 (HOP-92) | GI50 (T47D) | GI50 (SK-OV-3) | GI50 (COLO 205) | GI50 (HCC 2998) | GI50 (IGROV-1) | GI50 (NCI/ADR-RES) | GI50 (EKVX) | GI50 (NCI-H23) | GI50 (BT-549) | GI50 (786-0)
Cc1ccnc2c1c(=O)c1ccccc1n2C | 17.6 µM (inactive) | 37.5 µM (inactive) | 38 µM | 43 µM (inactive) | 40.7 µM (inactive) | 39.4 µM (inactive) | 34.4 µM (inactive) | 18.7 µM (inactive) | 50.7 µM (inactive) | 49.7 µM (inactive) | 38.9 µM (inactive) | 35.2 µM (inactive) | 39 µM (inactive) | 39.9 µM (inactive) | 31 µM (inactive) | 40.6 µM (inactive) | 30.8 µM (inactive) | 49.1 µM (inactive) | 27.1 µM (inactive) | 53.6 µM (inactive)
O=[N+]([O-])c1ccc(C(Nc2ccccc2)c2ccc3cccnc3c2O)cc1 (stereo not given) | 6.67 µM (inactive) | 4.37 µM (inactive) | 4.26 µM | 40.6 µM (inactive) | 7.48 µM (inactive) | 7.8 µM (inactive) | 3.85 µM (inactive) | 7.18 µM (inactive) | 7.94 µM (inactive) | 7.87 µM (inactive) | 5.25 µM (inactive) | 23.8 µM (inactive) | 12.2 µM (inactive) | 12.9 µM (inactive) | 10.6 µM (inactive) | 3.67 µM (inactive) | 6.04 µM (inactive) | 11.5 µM (inactive) | 10.3 µM (inactive) | 4.37 µM (inactive)
O=C1CSC(c2c[nH]c3ccccc23)N1c1cccc(Cl)c1 (stereo not given) | 46.7 µM (inactive) | 44.1 µM (inactive) | 40.4 µM | > 100 µM (inactive) | 54.7 µM (inactive) | 29.5 µM (inactive) | > 100 µM (inactive) | 40 µM (inactive) | 50.1 µM (inactive) | 60.4 µM (inactive) | > 100 µM (inactive) | > 100 µM (inactive) | 50.7 µM (inactive) | 54.3 µM (inactive) | 27.9 µM (inactive) | 36.1 µM (inactive) | > 100 µM (inactive) | 54 µM (inactive) | 43.9 µM (inactive) | 25.5 µM (inactive)
NC(=O)c1ncn(C2OC(CO)C(O)C2O)c1NC=O (stereo not given) | > 100 µM (inactive) | > 100 µM (inactive) | > 100 µM | > 100 µM (inactive) | > 100 µM (inactive) | > 100 µM (inactive) | > 100 µM (inactive) | > 100 µM (inactive) | > 100 µM (inactive) | > 100 µM (inactive) | > 100 µM (inactive) | > 100 µM (inactive) | > 100 µM (inactive) | > 100 µM (inactive) | > 100 µM (inactive) | > 100 µM (inactive) | > 100 µM (inactive) | > 100 µM (inactive) | > 100 µM (inactive) | > 100 µM (inactive)
